Assay results from patent publication EP2822595B1, “SPHINGOSINE-1 -PHOSPHATE RECEPTORS MODULATORS FOR IMPROVING VACCINE IMMUNIZATION” (Istituto Superiore di Sanità, priority 2012, dated 2013).
Read-outs that look alike come from different tables or passages of the source.

What was measured:
[1] = tested on: antigen-specific CD4^+ and CD8^+ proliferating cells; assay: CFSE proliferation assay of TT-specific T lymphocytes after systemic (intraperitoneal) immunization; type: in vivo, BALB/c mice; settings: 4 months after the second intraperitoneal immunization, vs non treated, p < 0.05
[2] = tested on: patients affected by Multiple Sclerosis; settings: cited from earlier work
[3] = tested on: TT-specific antibody responses; type: in vivo, BALB/c mice; settings: sera
[4] = tested on: TT-specific antibody responses; type: in vivo, BALB/c mice; settings: for titre of TT-specific IgA antibodies: one week after the recall dose, vs TT+CT without treatment
[5] = tested on: Ova-specific CD4^+ and CD8^+ T lymphocytes; type: in vivo, BALB/c mice; settings: 8 months after the fourth immunization, vs non treated
[6] = tested on: TT-specific antibody responses; type: in vivo, BALB/c mice; settings: FTY720 0.5 mg/Kg intragastric 48 and 24 hours before intranasal TT+CT
[7] = tested on: S1P receptors (S1P1, S1P3, S1P4 e S1P5); settings: 4 of 5 S1P receptors (S1P1, S1P3, S1P4 e S1P5); cited from earlier work
[8] = tested on: antigen-specific CD4^+ and CD8^+ T lymphocytes; assay: CFSE proliferation assay of TT-specific T lymphocytes after intranasal immunization; type: in vivo, BALB/c mice
[9] = tested on: TT-specific antibody secreting cells (ASC); type: in vivo, BALB/c mice; settings: bone marrow
[10] = oral, 0.5 and 1.25 mg a day, phase III clinical trials
[11] = serum, TT-specific, TT+CT intranasal plus FTY720 vs without, at different analyzed kinetic points
[12] = draining (mediastinal) lymph nodes, two weeks after the fourth immunization, vs immunized non treated mice, p < 0.05
[13] = draining lymph nodes, 8 months after the fourth immunization, one week after one recall dose, vs non treated, p < 0.05
[14] = spleen, 8 months after the fourth immunization, after one recall dose, vs non treated
[15] = spleen, two weeks after the fourth immunization, treated vs non treated

Structure (SMILES): CCCCCCCCc1ccc(CCC(N)(CO)CO)cc1.Cl [FTY720, 2-amino-2-(2-(4-octylphenyl)ethyl)propane-1,3-diol hydrochloride]
- percentage of antigen-specific CD4^+ proliferating cells ([1]; lymph nodes): higher percentage
- percentage of antigen-specific CD8^+ proliferating cells ([1]; lymph nodes): higher percentage
- percentage of antigen-specific CD4^+ proliferating cells ([1]; spleen): higher percentage
- percentage of antigen-specific CD8^+ proliferating cells ([1]; spleen): higher percentage
- infectious complications ([2]; mainly in patients who received the higher dose (1.25 mg a day)): some infectious complications
- effectiveness in Multiple Sclerosis patients [2, 10]: effective
- tolerability in Multiple Sclerosis patients [2, 10]: well tolerated
- titre of anti-tetanus IgG antibodies, differences between the two groups ([3]; one month after the second intraperitoneal immunization, treated vs non treated, differences decreased): still detectable
- titre of anti-tetanus IgG antibodies ([3]; one week after the first intraperitoneal immunization with TT+CT, FTY720 0.5 mg/Kg intragastrically the day after immunization, TT+CT without treatment: 63 times): 203 times with respect to the titre of mice immunized only with TT
- titre of anti-tetanus IgG antibodies ([3]; one week after the second intraperitoneal immunization, TT+CT plus FTY720 (575) vs TT+CT without treatment (152), apparently times over TT only): 575
- titre of TT-specific IgA antibodies ([4]; saliva): higher titres
- titre of IgG1 subclass [4, 11]: Increase of the titre
- titre of IgG2a subclass [4, 11]: Increase of the titre
- anti-TT IgG antibody titre ([4]; serum, four months after the fourth immunization (pre-boost), vs immunized mice without treatment): maintained at higher levels
- IgG antibodies specific for the TT ([4]; serum, one week after boost given four months after the fourth immunization, vs immunized mice without treatment): higher levels
- anti-tetanus IgG antibody titre ([4]; serum, one week after the fourth intranasal immunization, TT+CT plus FTY720 (761) vs TT+CT without treatment (304), apparently times over TT only): 761
- anti-tetanus IgG antibody titre ([4]; serum, one week after the second intranasal immunization with TT+CT, FTY720 0.5 mg/Kg intragastric the day after first and second immunization, TT+CT without treatment: 54 times): 305 times with respect to the titre of mice which received only TT
- anti-tetanus IgG antibody titre ([4]; serum, one week after the third intranasal immunization, TT+CT plus FTY720 vs TT+CT without treatment): increase
- titre of TT-specific IgA antibodies ([4]; vaginal washes (VW)): higher titres
- percentage of Ova-specific CD4^+ T lymphocytes ([5]; draining lymph nodes): higher percentage
- percentage of Ova-specific CD8^+ T lymphocytes ([5]; draining lymph nodes): higher percentage
- percentage of Ova-specific CD4^+ T lymphocytes ([5]; spleen): higher percentage
- percentage of Ova-specific CD8^+ T lymphocytes ([5]; spleen): higher percentage
- titre of anti-tetanus IgG antibodies ([6]; one week after the second immunization, data not showed): only the titre of anti-tetanus IgG antibodies in mice immunized with TT and CT was appreciable
- titre of IgG antibody specific for the TT ([6]; one week after the third immunization): higher in mice immunized with TT and CT in the absence of treatment
- agonist activity at S1P receptors [7]: strong agonist
- proliferation of antigen-specific CD4^+ T lymphocytes [8, 12]: significantly higher
- proliferation of antigen-specific CD8^+ T lymphocytes [8, 12]: significantly higher
- proliferation of antigen-specific CD4^+ T lymphocytes [8, 13]: higher
- proliferation of antigen-specific CD8^+ T lymphocytes [8, 13]: higher
- percentage of antigen-specific CD4^+ T lymphocytes [8, 14]: higher percentage
- percentage of antigen-specific CD8^+ T lymphocytes [8, 14]: higher percentage
- proliferation of antigen-specific CD4^+ T lymphocytes [8, 15]: comparable
- proliferation of antigen-specific CD8^+ T lymphocytes [8, 15]: comparable
- number of anti-TT IgG ASC ([9]; two weeks after the fourth immunization, immunized and not treated mice: 60): 115 ASC/1×10^6 of cells
- number of anti-TT IgA ASC ([9]; two weeks after the fourth immunization, non treated: 40): 80 ASC/1×10^6 of cells
- number of anti-TT IgG ASC ([9]; two weeks after the recall dose (4 months after fourth immunization), non treated: 123): 240 ASC/1×10^6 of cells
- number of anti-TT IgA ASC ([9]; two weeks after the recall dose, non treated: 58): 136 ASC/1×10^6 of cells
